The source of these data is patent US20120225062A1 (priority 2011, published 2012).

The target in one experiment is Pim 1 (Homo sapiens, UniProt P11309). Nature of the experiment: Pim 1 AlphaScreen assay (high ATP).
The target of a further experiment is Pim 3 (Homo sapiens, UniProt Q86V86). Put plainly: Pim 3 AlphaScreen assay (high ATP).
In experiment [1] the test system is KMS11 (human myeloma cell line). Put plainly: Cell Proliferation Assay (CellTiter-Glo, 3 days). Format: cell-based. The conditions noted are these: KMS-11, 72 h, KMS11-luc cells. An outline of the steps: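 EC50 from CellTiter-Glo luminescence after 3-day, 37° C compound treatment of KMS11 cells seeded at 2000 per well in IMDM plus 10% FBS.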
The target in the next experiment is Pim 2 (Homo sapiens, UniProt Q9P1W9). Nature of the experiment: Pim 2 AlphaScreen assay (high ATP).
Chain of Pim 2 (Q9P1W9 whole entry): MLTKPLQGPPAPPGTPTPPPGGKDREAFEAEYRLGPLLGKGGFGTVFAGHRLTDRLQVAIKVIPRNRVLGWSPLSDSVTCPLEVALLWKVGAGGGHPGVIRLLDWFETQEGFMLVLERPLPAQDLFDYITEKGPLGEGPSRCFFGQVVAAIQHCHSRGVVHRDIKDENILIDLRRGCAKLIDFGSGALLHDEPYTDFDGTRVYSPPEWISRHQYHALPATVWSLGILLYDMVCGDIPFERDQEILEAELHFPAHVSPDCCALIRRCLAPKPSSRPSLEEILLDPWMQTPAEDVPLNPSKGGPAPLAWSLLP

Chain of Pim 1 (P11309 whole entry): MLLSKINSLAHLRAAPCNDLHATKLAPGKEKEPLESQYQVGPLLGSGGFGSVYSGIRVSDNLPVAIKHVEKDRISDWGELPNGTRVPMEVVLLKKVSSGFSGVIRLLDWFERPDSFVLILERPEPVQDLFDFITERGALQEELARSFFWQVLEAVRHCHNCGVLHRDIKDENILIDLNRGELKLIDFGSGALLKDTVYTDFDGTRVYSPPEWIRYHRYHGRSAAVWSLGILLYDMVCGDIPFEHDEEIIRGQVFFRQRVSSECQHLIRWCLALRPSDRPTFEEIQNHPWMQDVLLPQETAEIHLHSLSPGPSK

Consider `C=Cc1ccc(F)c(-c2nc(C(=O)Nc3cnccc3[C@H]3C[C@@H](N)[C@H](O)[C@@H](C)C3)ccc2F)c1F` [Example 193, N-(4-((1R,3R,4R,5S)-3-amino-4-hydroxy-5-methylcyclohexyl)pyridin-3-yl)-6-(2,6-difluoro-3-vinylphenyl)-5-fluoropicolinamide], for which the figures for the IC50 against Pim 1, against Pim 3 and on Pim 2 were 0.47 nM, 10.2 nM and 31.8 nM, respectively. In experiment [1], this compound registered an EC50 of 1850 nM.
Consider `C[C@@H]1C[C@H](N)C[C@H](c2ccncc2NC(=O)c2ccc(F)c(-c3c(F)cc(OC[C@@H](O)CO)cc3F)n2)C1` [Example 3, N-(4-((1R,3S,5S)-3-amino-5-methylcyclohexyl)pyridin-3-yl)-6-(4-((S)-2,3-dihydroxypropoxy)-2,6-difluorophenyl)-5-fluoropicolinamide], for which the IC50 on Pim 1 was found to be 0.03 nM; against Pim 3, 0.55 nM; against Pim 2, 1.89 nM. In experiment [1], it took 53 nM to reach a half-maximal effect (EC50).
Take `C[C@@H]1C[C@H](N)C[C@H](c2ccncc2NC(=O)c2nc(-c3c(F)cc(C(C)(C)O)cc3F)c(F)cc2N)C1` [Example 100, 3-amino-N-(4-((1R,3S,5S)-3-amino-5-methylcyclohexyl)pyridin-3-yl)-6-(2,6-difluoro-4-(2-hydroxypropan-2-yl)phenyl)-5-fluoropicolinamide]: the IC50 turned out to be 0.01 nM on Pim 1, 0.13 nM against Pim 3 and 0.53 nM on Pim 2. Moreover, the concentration giving a half-maximal response (EC50) in experiment [1] was determined as 12 nM.
The like results for `C[C@@H]1C[C@H](N)C[C@H](c2ccncc2NC(=O)c2ccc(F)c(-c3c(F)cc(OCC(=O)N(C)C)cc3F)n2)C1` [Example 143, N-(4-((1R,3S,5S)-3-amino-5-methylcyclohexyl)pyridin-3-yl)-6-(4-(2-(dimethylamino)-2-oxoethoxy)-2,6-difluorophenyl)-5-fluoropicolinamide] were, in that order, 0.05 nM, 0.77 nM, 9.42 nM and 197 nM.
For `C[C@@H]1C[C@H](N)C[C@H](c2ccncc2NC(=O)c2ccc(F)c(-c3c(F)ccc(OC[C@@H](O)CO)c3F)n2)C1` [Example 10, N-(4-((1R,3S,5S)-3-amino-5-methylcyclohexyl)pyridin-3-yl)-6-(3-((S)-2,3-dihydroxypropoxy)-2,6-difluorophenyl)-5-fluoropicolinamide], in that order: 0.03 nM, 0.95 nM, 4.96 nM and 126 nM.
With `C[C@@H]1C[C@H](N)C[C@H](c2ccncc2NC(=O)c2ccc(F)c(-c3c(F)cc(C4(F)CCOCC4)cc3F)n2)C1` [Example 126, N-(4-((1R,3S,5S)-3-amino-5-methylcyclohexyl)pyridin-3-yl)-6-(216-difluoro-4-(4-fluorotetrahydro-2H-pyran-4-yl)phenyl)-5-fluoropicolinamide], the IC50 against Pim 1 was determined as 0.02 nM; on Pim 3, 1.15 nM; against Pim 2, 1.33 nM. Further, in experiment [1], it took 64 nM to reach a half-maximal effect (EC50).
The like results for `COCc1cc(F)c(-c2nc(C(=O)Nc3cnccc3[C@@H]3C[C@H](C)C[C@H](N)C3)ccc2F)c(F)c1` [Example 41, N-(4-((1R,3S,5S)-3-amino-5-methylcyclohexyl)pyridin-3-yl)-6-(2,6-difluoro-4-(methoxymethyl)phenyl)-5-fluoropicolinamide] were, in that order, 0.04 nM, 2.14 nM, 2.78 nM and 22 nM.
The like results for `C[C@@H]1C[C@H](N)C[C@H](c2ccncc2NC(=O)c2ccc(F)c(-c3c(F)ccc(OC[C@H](O)CO)c3F)n2)C1` [Example 9, N-(4-((1R,3S,5S)-3-amino-5-methylcyclohexyl)pyridin-3-yl)-6-(3-((R)-2,3-dihydroxypropoxy)-2,6-difluorophenyl)-5-fluoropicolinamide] were, in that order, 0.04 nM, 1.09 nM, 3.97 nM and 72 nM.
For `C[C@H]1C[C@@H](c2ccncc2NC(=O)c2ccc(F)c(-c3c(F)cc(OC4CCOC4)cc3F)n2)C[C@@H](N)[C@@H]1O` (stereo in doubt) [Example 70, N-(4-((1R,3R,4R,5S)-3-amino-4-hydroxy-5-methylcyclohexyl)pyridin-3-yl)-6-(2,6-difluoro-4-((S)-tetrahydrofuran-3-yloxy)phenyl)-5-fluoropicolinamide], in that order: 0.04 nM, 1.15 nM, 4.01 nM and 68 nM.
On to `C[C@@H]1C[C@H](N)C[C@H](c2ccncc2NC(=O)c2ccc(F)c(-c3c(F)cc(OC4CCOCC4)cc3F)n2)C1` [Example 63, N-(4-((1R,3S,5S)-3-amino-5-methylcyclohexyl)pyridin-3-yl)-6-(2,6-difluoro-4-((tetrahydro-2H-pyran-4-yl)oxy)phenyl)-5-fluoropicolinamide], for which the IC50 against Pim 1 is 0.01 nM; against Pim 3, 0.32 nM; at Pim 2, 2.04 nM. This compound showed a half-maximal effective concentration (EC50) in experiment [1] of 76 nM.
For `COCCCOc1cc(F)c(-c2nc(C(=O)Nc3cnccc3[C@H]3C[C@@H](N)[C@H](O)[C@@H](C)C3)ccc2F)c(F)c1` [Example 184, N-(4-((1R,3R,4R,5S)-3-amino-4-hydroxy-5-methylcyclohexyl)pyridin-3-yl)-6-(2,6-difluoro-4-(3-methoxypropoxy)phenyl)-5-fluoropicolinamide], in that order: 0.03 nM, 0.93 nM, 3.54 nM and 161 nM.
For `CC(C)Oc1cc(F)c(-c2nc(C(=O)Nc3cnccc3[C@@H]3C[C@H](C)C[C@H](N)C3)c(N)cc2F)c(F)c1` [Example 96, 3-amino-N-(4-((1R,3S,5S)-3-amino-5-methylcyclohexyl)pyridin-3-yl)-6-(2,6-difluoro-4-isopropoxyphenyl)-5-fluoropicolinamide], in that order: 0.01 nM, 0.24 nM, 1.16 nM and 76 nM.
As to `C[C@H]1CN(c2ccncc2NC(=O)c2nc(-c3c(F)cc(C4COC4)cc3F)c(F)cc2N)C[C@@H](N)[C@@H]1O` [Example 107, 3-amino-N-(4-((3R,4R,5S)-3-amino-4-hydroxy-5-methylpiperidin-1-yl)pyridin-3-yl)-6-(2,6-difluoro-4-(oxetan-3-yl)phenyl)-5-fluoropicolinamide], the values for the 50% inhibitory concentration (IC50) on Pim 1, at Pim 3 and at Pim 2 were 0.02 nM, 0.31 nM and 1.03 nM, respectively. Moreover, a half-maximal response in experiment [1] (EC50) required 157 nM.
For `C[C@@H]1C[C@H](N)C[C@H](c2ccncc2NC(=O)c2ccc(F)c(-c3c(F)cc(OC(F)F)cc3F)n2)C1` [Example 65, N-(4-((1R,3S,5S)-3-amino-5-methylcyclohexyl)pyridin-3-yl)-6-(4-(difluoromethoxy)-2,6-difluorophenyl)-5-fluoropicolinamide], in that order: 0.01 nM, 1.01 nM, 3.84 nM and 83 nM.
For `C[C@@H]1C[C@H](N)C[C@H](c2ccncc2NC(=O)c2ccc(F)c(-c3c(F)cc([C@H]4CCOC4)cc3F)n2)C1` [Example 207, N-(4-((1R,3S,5S)-3-amino-5-methylcyclohexyl)pyridin-3-yl)-6-(2,6-difluoro-4-((R)-tetrahydrofuran-3-yl)phenyl)-5-fluoropicolinamide], in that order: 0.01 nM, 0.13 nM, 1.23 nM and 96 nM.
For `C[C@@H]1C[C@H](N)C[C@H](c2ccncc2NC(=O)c2ccc(F)c(-c3c(F)cc(OC4CCOC4)cc3F)n2)C1` (stereo in doubt) [Example 71, N-(4-((1R,3S,5S)-3-amino-5-methylcyclohexyl)pyridin-3-yl)-6-(2,6-difluoro-4-((R)-tetrahydrofuran-3-yloxy)phenyl)-5-fluoropicolinamide], in that order: 0.02 nM, 0.97 nM, 2.21 nM and 48 nM.
For `C[C@@H]1C[C@H](N)C[C@H](c2ccncc2NC(=O)c2ccc(F)c(-c3c(F)cc(-c4ccnnc4)cc3F)n2)C1` [Example 142, N-(4-((1R,3S,5S)-3-amino-5-methylcyclohexyl)pyridin-3-yl)-6-(2,6-difluoro-4-(pyridazin-4-yl)phenyl)-5-fluoropicolinamide], the IC50 is 0.12 nM against Pim 1, 17.8 nM against Pim 3 and 28.4 nM against Pim 2. A half-maximal effect in experiment [1] (EC50) was put at 1640 nM.
The like results for `CC(C)Oc1cc(F)c(-c2nc(C(=O)Nc3cnccc3[C@@H]3C[C@H](C)C[C@H](N)C3)ccc2F)c(F)c1` [Example 75, N-(4-((1R,3S,5S)-3-amino-5-methylcyclohexyl)pyridin-3-yl)-6-(2,6-difluoro-4-isopropoxyphenyl)-5-fluoropicolinamide] were, in that order, 0.02 nM, 0.62 nM, 1.55 nM and 44 nM.
For `CC(C)OCc1cc(F)c(-c2nc(C(=O)Nc3cnccc3[C@@H]3C[C@H](C)C[C@H](N)C3)ccc2F)c(F)c1` [Example 147, N-(4-((1R,3S,5S)-3-amino-5-methylcyclohexyl)pyridin-3-yl)-6-(2,6-difluoro-4-(isopropoxymethyl)phenyl)-5-fluoropicolinamide], in that order: 0.02 nM, 1.03 nM, 2.77 nM and 146 nM.
